The source of these data is article PMC6784069 (Toxins, 2019).

In test [1] the target is T1, hNaV1.7 (Homo sapiens, UniProt Q15858). Put plainly: cell-based. Format: cell-based. Particulars: for IC50: hNaV1.7 IC50.
In another test the target is hCaV1.2 (Homo sapiens, UniProt Q13936). Put plainly: cell-based. Particulars: read-out: IC90–95 (compound concentration necessary to inhibit 90–95% of current).
Test [2] deals with T1, hNaV1.7. Particulars: cited from earlier work.

The term IC50 denotes the concentration that inhibits the measured activity by half.

Where two headings read alike, the source gives them in different places. Residues, ends and D or L forms follow the SMILES beside them.

T1 sequence (Q15858 whole entry): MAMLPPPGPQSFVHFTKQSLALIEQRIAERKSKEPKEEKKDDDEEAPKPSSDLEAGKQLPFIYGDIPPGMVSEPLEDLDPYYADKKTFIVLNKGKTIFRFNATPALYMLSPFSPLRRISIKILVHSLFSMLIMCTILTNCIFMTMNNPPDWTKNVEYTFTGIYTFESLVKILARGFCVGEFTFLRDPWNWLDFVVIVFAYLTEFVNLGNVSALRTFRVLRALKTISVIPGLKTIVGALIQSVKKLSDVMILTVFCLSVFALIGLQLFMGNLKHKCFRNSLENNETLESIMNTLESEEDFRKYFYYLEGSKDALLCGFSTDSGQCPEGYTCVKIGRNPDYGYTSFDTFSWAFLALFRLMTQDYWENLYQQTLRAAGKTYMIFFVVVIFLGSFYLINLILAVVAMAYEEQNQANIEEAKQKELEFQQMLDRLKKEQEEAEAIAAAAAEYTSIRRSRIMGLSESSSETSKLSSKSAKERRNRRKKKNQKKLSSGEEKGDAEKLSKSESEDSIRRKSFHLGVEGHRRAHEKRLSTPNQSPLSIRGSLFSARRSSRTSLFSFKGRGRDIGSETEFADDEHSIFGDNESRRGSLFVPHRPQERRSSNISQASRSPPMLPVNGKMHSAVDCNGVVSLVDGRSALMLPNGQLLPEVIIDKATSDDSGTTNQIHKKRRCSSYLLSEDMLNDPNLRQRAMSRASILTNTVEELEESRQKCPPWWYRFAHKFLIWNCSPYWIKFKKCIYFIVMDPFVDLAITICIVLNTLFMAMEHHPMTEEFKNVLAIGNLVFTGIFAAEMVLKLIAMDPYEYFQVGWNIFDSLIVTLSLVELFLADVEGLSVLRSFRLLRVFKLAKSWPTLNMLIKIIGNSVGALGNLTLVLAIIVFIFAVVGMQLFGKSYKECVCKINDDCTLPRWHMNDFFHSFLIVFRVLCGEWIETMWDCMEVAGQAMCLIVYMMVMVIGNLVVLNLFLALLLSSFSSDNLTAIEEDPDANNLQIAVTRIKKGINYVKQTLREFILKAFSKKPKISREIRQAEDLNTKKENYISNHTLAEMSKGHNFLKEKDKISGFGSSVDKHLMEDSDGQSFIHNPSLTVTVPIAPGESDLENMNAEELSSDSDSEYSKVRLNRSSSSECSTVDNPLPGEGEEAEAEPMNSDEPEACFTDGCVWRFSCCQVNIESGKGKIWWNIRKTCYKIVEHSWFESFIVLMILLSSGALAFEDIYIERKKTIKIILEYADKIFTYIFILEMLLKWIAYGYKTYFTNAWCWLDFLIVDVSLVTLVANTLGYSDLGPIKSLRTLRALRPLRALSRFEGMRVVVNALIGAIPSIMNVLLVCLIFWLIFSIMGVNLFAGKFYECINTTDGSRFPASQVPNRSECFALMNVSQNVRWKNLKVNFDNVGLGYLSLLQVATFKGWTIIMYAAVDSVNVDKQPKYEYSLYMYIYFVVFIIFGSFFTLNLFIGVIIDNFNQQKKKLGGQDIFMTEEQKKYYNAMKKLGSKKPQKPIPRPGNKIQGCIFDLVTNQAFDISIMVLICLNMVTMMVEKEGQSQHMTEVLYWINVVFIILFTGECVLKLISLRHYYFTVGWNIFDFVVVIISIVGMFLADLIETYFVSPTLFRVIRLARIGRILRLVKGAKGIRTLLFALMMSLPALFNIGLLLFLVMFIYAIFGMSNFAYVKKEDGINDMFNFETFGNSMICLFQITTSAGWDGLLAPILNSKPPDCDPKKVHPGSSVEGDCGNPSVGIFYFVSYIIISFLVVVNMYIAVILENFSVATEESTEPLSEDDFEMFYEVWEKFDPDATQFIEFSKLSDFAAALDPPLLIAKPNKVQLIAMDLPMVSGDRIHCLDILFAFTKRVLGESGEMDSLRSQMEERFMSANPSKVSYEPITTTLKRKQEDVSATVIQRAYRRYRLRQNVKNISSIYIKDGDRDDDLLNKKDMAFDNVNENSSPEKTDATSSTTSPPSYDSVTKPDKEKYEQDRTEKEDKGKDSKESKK

As for `CC(C)C[C@@H]1NC(=O)[C@@H](NC(=O)[C@H](C)N)CSSC[C@@H]2NC(=O)[C@@H]3CSSC[C@@H](C(=O)N[C@@H](CCCNC(=N)N)C(=O)N[C@@H](Cc4ccc(O)cc4)C(=O)N[C@@H](CCCCN)C(=O)N[C@@H](CC(C)C)C(=O)N[C@@H](Cc4ccccc4)C(=O)O)NC(=O)[C@H](Cc4c[nH]c5ccccc45)NC(=O)[C@@H]4CCCN4C(=O)[C@H](Cc4ccc(O)cc4)NC(=O)[C@H](CCCCN)NC(=O)[C@H](Cc4c[nH]c5ccccc45)NC(=O)[C@H](CCC(=O)O)NC(=O)[C@H](CSSC[C@H](NC(=O)[C@H](C)NC(=O)[C@H](CC(=O)O)NC(=O)[C@H](Cc4c[nH]c5ccccc45)NC(=O)[C@H](CCC(N)=O)NC(=O)CNC1=O)C(=O)N[C@@H](CC(=O)O)C(=O)N1CCC[C@H]1C(=O)N[C@@H](CCCCN)C(=O)N[C@@H](C)C(=O)N[C@@H](CO)C(=O)N[C@@H](CCCCN)C(=O)N3)NC(=O)[C@H](C)NC(=O)[C@H](Cc1ccc(O)cc1)NC(=O)[C@H](CC(N)=O)NC(=O)[C@@H]1CCCN1C2=O` [S8A] (HELM PEPTIDE1{A.C.L.G.Q.W.D.A.C.D.P.K.A.S.K.C.C.P.N.Y.A.C.E.W.K.Y.P.W.C.R.Y.K.L.F}$PEPTIDE1,PEPTIDE1,2:R3-17:R3|PEPTIDE1,PEPTIDE1,9:R3-22:R3|PEPTIDE1,PEPTIDE1,16:R3-29:R3$$$V2.0), the “modification of variant affinity for hNaV1.7 relative to wild-type” value on hNaV1.7 [1] is recorded as “less than 3 fold”. The molecule also showed an IC50 against hNaV1.7 [1] (SD) of 180 nM.
Take `CC(C)C[C@@H]1NC(=O)[C@@H](NC(=O)[C@@H]2CCC(=O)N2)CSSC[C@@H]2NC(=O)[C@@H]3CSSC[C@@H](C(=O)N[C@@H](CCCNC(=N)N)C(=O)N[C@@H](Cc4ccc(O)cc4)C(=O)N[C@@H](CCCCN)C(=O)N[C@@H](CC(C)C)C(=O)N[C@@H](Cc4ccccc4)C(=O)O)NC(=O)[C@H](Cc4c[nH]c5ccccc45)NC(=O)[C@@H]4CCCN4C(=O)[C@H](Cc4ccc(O)cc4)NC(=O)[C@H](CCCCN)NC(=O)[C@H](Cc4c[nH]c5ccccc45)NC(=O)[C@H](CCC(=O)O)NC(=O)[C@H](CSSC[C@H](NC(=O)[C@H](CO)NC(=O)[C@H](CC(=O)O)NC(=O)[C@H](Cc4c[nH]c5ccccc45)NC(=O)[C@H](CCC(N)=O)NC(=O)CNC1=O)C(=O)N[C@@H](CC(=O)O)C(=O)N1CCC[C@H]1C(=O)N[C@@H](CCCCN)C(=O)N[C@@H](C)C(=O)N[C@@H](CO)C(=O)N[C@@H](CCCCN)C(=O)N3)NC(=O)[C@H](C)NC(=O)[C@H](Cc1ccc(O)cc1)NC(=O)[C@H](CC(N)=O)NC(=O)[C@@H]1CCCN1C2=O` [A1Z] (HELM PEPTIDE1{[Glp].C.L.G.Q.W.D.S.C.D.P.K.A.S.K.C.C.P.N.Y.A.C.E.W.K.Y.P.W.C.R.Y.K.L.F}$PEPTIDE1,PEPTIDE1,2:R3-17:R3|PEPTIDE1,PEPTIDE1,9:R3-22:R3|PEPTIDE1,PEPTIDE1,16:R3-29:R3$$$V2.0): the “modification of variant affinity for hNaV1.7 relative to wild-type” value at hNaV1.7 [1] is listed as “less than 3 fold”. Half-maximal inhibition against hNaV1.7 [1] (SD) (IC50) required 172 nM.
On to `CC(C)C[C@@H]1NC(=O)[C@@H](NC(=O)[C@H](C)N)CSSC[C@@H]2NC(=O)[C@@H]3CSSC[C@@H](C(=O)N[C@@H](CCCNC(=N)N)C(=O)N[C@@H](Cc4ccc(O)cc4)C(=O)N[C@@H](CCCCN)C(=O)N[C@@H](CC(C)C)C(=O)N[C@@H](Cc4ccccc4)C(=O)O)NC(=O)[C@H](Cc4c[nH]c5ccccc45)NC(=O)[C@@H]4CCCN4C(=O)[C@H](Cc4ccc(O)cc4)NC(=O)[C@H](C)NC(=O)[C@H](Cc4c[nH]c5ccccc45)NC(=O)[C@H](CCC(=O)O)NC(=O)[C@H](CSSC[C@H](NC(=O)[C@H](CO)NC(=O)[C@H](CC(=O)O)NC(=O)[C@H](Cc4c[nH]c5ccccc45)NC(=O)[C@H](CCC(N)=O)NC(=O)CNC1=O)C(=O)N[C@@H](CC(=O)O)C(=O)N1CCC[C@H]1C(=O)N[C@@H](CCCCN)C(=O)N[C@@H](C)C(=O)N[C@@H](CO)C(=O)N[C@@H](CCCCN)C(=O)N3)NC(=O)[C@H](C)NC(=O)[C@H](Cc1ccc(O)cc1)NC(=O)[C@H](CC(N)=O)NC(=O)[C@@H]1CCCN1C2=O` [K25A] (HELM PEPTIDE1{A.C.L.G.Q.W.D.S.C.D.P.K.A.S.K.C.C.P.N.Y.A.C.E.W.A.Y.P.W.C.R.Y.K.L.F}$PEPTIDE1,PEPTIDE1,2:R3-17:R3|PEPTIDE1,PEPTIDE1,9:R3-22:R3|PEPTIDE1,PEPTIDE1,16:R3-29:R3$$$V2.0), for which the IC50 at hNaV1.7 [1] was greater than 10000 nM.
Regarding `CC(C)C[C@@H]1NC(=O)[C@@H](NC(=O)[C@H](C)N)CSSC[C@@H]2NC(=O)[C@@H]3CSSC[C@@H](C(=O)N[C@@H](CCCNC(=N)N)C(=O)N[C@@H](Cc4ccc(O)cc4)C(=O)N[C@@H](CCCCN)C(=O)N[C@@H](CC(C)C)C(=O)N[C@@H](Cc4ccccc4)C(=O)O)NC(=O)[C@H](Cc4c[nH]c5ccccc45)NC(=O)[C@@H]4CCCN4C(=O)[C@H](Cc4ccc(O)cc4)NC(=O)[C@H](CCCCN)NC(=O)[C@H](Cc4c[nH]c5ccccc45)NC(=O)[C@H](CCC(=O)O)NC(=O)[C@H](CSSC[C@H](NC(=O)[C@H](CO)NC(=O)[C@H](CC(=O)O)NC(=O)[C@H](Cc4c[nH]c5ccccc45)NC(=O)[C@H](CCC(N)=O)NC(=O)CNC1=O)C(=O)N[C@@H](CC(=O)O)C(=O)N1CCC[C@H]1C(=O)N[C@@H](C)C(=O)N[C@@H](C)C(=O)N[C@@H](CO)C(=O)N[C@@H](CCCCN)C(=O)N3)NC(=O)[C@H](C)NC(=O)[C@H](Cc1ccc(O)cc1)NC(=O)[C@H](CC(N)=O)NC(=O)[C@@H]1CCCN1C2=O` [K12A] (HELM PEPTIDE1{A.C.L.G.Q.W.D.S.C.D.P.A.A.S.K.C.C.P.N.Y.A.C.E.W.K.Y.P.W.C.R.Y.K.L.F}$PEPTIDE1,PEPTIDE1,2:R3-17:R3|PEPTIDE1,PEPTIDE1,9:R3-22:R3|PEPTIDE1,PEPTIDE1,16:R3-29:R3$$$V2.0), the “modification of variant affinity for hNaV1.7 relative to wild-type” value at hNaV1.7 [1] is recorded as “less than 3 fold”. Besides, 252 nM corresponded to half-maximal inhibition against hNaV1.7 [1] (SD) (IC50).
Turning to `COC(=O)C1=C(C)NC(C)=C(C(=O)OC)C1c1ccccc1[N+](=O)[O-]` [Nifedipine, reference compound], the IC90 on hCaV1.2 (CHO) came out at 10 µM.
For the molecule `[Cl][Cd][Cl]` [Cadmium (chloride), reference compound], the IC90 at hCaV1.2 was 200 µM.
On to `CC(C)C[C@@H]1NC(=O)[C@@H](NC(=O)[C@H](C)N)CSSC[C@@H]2NC(=O)[C@@H]3CSSC[C@@H](C(=O)N[C@@H](CCCNC(=N)N)C(=O)N[C@@H](Cc4ccc(O)cc4)C(=O)N[C@@H](CCCCN)C(=O)N[C@@H](CC(C)C)C(=O)N[C@@H](Cc4ccccc4)C(=O)O)NC(=O)[C@H](Cc4c[nH]c5ccccc45)NC(=O)[C@@H]4CCCN4C(=O)[C@H](C)NC(=O)[C@H](CCCCN)NC(=O)[C@H](Cc4c[nH]c5ccccc45)NC(=O)[C@H](CCC(=O)O)NC(=O)[C@H](CSSC[C@H](NC(=O)[C@H](CO)NC(=O)[C@H](CC(=O)O)NC(=O)[C@H](Cc4c[nH]c5ccccc45)NC(=O)[C@H](CCC(N)=O)NC(=O)CNC1=O)C(=O)N[C@@H](CC(=O)O)C(=O)N1CCC[C@H]1C(=O)N[C@@H](CCCCN)C(=O)N[C@@H](C)C(=O)N[C@@H](CO)C(=O)N[C@@H](CCCCN)C(=O)N3)NC(=O)[C@H](C)NC(=O)[C@H](Cc1ccc(O)cc1)NC(=O)[C@H](CC(N)=O)NC(=O)[C@@H]1CCCN1C2=O` [Y26A] (HELM PEPTIDE1{A.C.L.G.Q.W.D.S.C.D.P.K.A.S.K.C.C.P.N.Y.A.C.E.W.K.A.P.W.C.R.Y.K.L.F}$PEPTIDE1,PEPTIDE1,2:R3-17:R3|PEPTIDE1,PEPTIDE1,9:R3-22:R3|PEPTIDE1,PEPTIDE1,16:R3-29:R3$$$V2.0), for which the IC50 against hNaV1.7 [1] was greater than 10000 nM.
As to `CC(C)C[C@@H]1NC(=O)[C@@H](NC(=O)[C@H](C)N)CSSC[C@@H]2NC(=O)[C@@H]3CSSC[C@@H](C(=O)N[C@@H](CCCNC(=N)N)C(=O)N[C@@H](Cc4ccc(O)cc4)C(=O)N[C@@H](CCCCN)C(=O)N[C@@H](CC(C)C)C(=O)N[C@@H](Cc4ccccc4)C(=O)O)NC(=O)[C@H](Cc4c[nH]c5ccccc45)NC(=O)[C@@H]4CCCN4C(=O)[C@H](Cc4ccc(O)cc4)NC(=O)[C@H](CCCCN)NC(=O)[C@H](Cc4c[nH]c5ccccc45)NC(=O)[C@H](CCC(=O)O)NC(=O)[C@H](CSSC[C@H](NC(=O)[C@H](CO)NC(=O)[C@H](CC(=O)O)NC(=O)[C@H](Cc4c[nH]c5ccccc45)NC(=O)[C@H](CCC(N)=O)NC(=O)CNC1=O)C(=O)N[C@@H](CC(=O)O)C(=O)N1CCC[C@H]1C(=O)N[C@@H](CCCCN)C(=O)N[C@@H](C)C(=O)N[C@@H](CO)C(=O)N[C@@H](C)C(=O)N3)NC(=O)[C@H](C)NC(=O)[C@H](Cc1ccc(O)cc1)NC(=O)[C@H](CC(N)=O)NC(=O)[C@@H]1CCCN1C2=O` [K15A] (HELM PEPTIDE1{A.C.L.G.Q.W.D.S.C.D.P.K.A.S.A.C.C.P.N.Y.A.C.E.W.K.Y.P.W.C.R.Y.K.L.F}$PEPTIDE1,PEPTIDE1,2:R3-17:R3|PEPTIDE1,PEPTIDE1,9:R3-22:R3|PEPTIDE1,PEPTIDE1,16:R3-29:R3$$$V2.0), the “modification of variant affinity for hNaV1.7 relative to wild-type” value on hNaV1.7 [1] is “less than 3 fold”. The molecule also gave an IC50 on hNaV1.7 [1] (SD) of 706 nM.
As for “Pre1a: spider toxin, NaV ligand (CLGWFSRCSPKNDKCCPNYKCSSKDLWCKYKIW)”, the concentration for half-maximal inhibition (IC50) in the test with hNaV1.7 [2] is 114 nM.
For `CC(C)C[C@@H]1NC(=O)[C@@H](NC(=O)[C@H](C)N)CSSC[C@@H]2NC(=O)[C@@H]3CSSC[C@@H](C(=O)N[C@@H](CCCNC(=N)N)C(=O)N[C@@H](Cc4ccc(O)cc4)C(=O)N[C@@H](CCCCN)C(=O)N[C@@H](CC(C)C)C(=O)N[C@@H](Cc4ccccc4)C(=O)O)NC(=O)[C@H](Cc4c[nH]c5ccccc45)NC(=O)[C@@H]4CCCN4C(=O)[C@H](Cc4ccc(O)cc4)NC(=O)[C@H](CCCCN)NC(=O)[C@H](C)NC(=O)[C@H](CCC(=O)O)NC(=O)[C@H](CSSC[C@H](NC(=O)[C@H](CO)NC(=O)[C@H](CC(=O)O)NC(=O)[C@H](Cc4c[nH]c5ccccc45)NC(=O)[C@H](CCC(N)=O)NC(=O)CNC1=O)C(=O)N[C@@H](CC(=O)O)C(=O)N1CCC[C@H]1C(=O)N[C@@H](CCCCN)C(=O)N[C@@H](C)C(=O)N[C@@H](CO)C(=O)N[C@@H](CCCCN)C(=O)N3)NC(=O)[C@H](C)NC(=O)[C@H](Cc1ccc(O)cc1)NC(=O)[C@H](CC(N)=O)NC(=O)[C@@H]1CCCN1C2=O` [W24A] (HELM PEPTIDE1{A.C.L.G.Q.W.D.S.C.D.P.K.A.S.K.C.C.P.N.Y.A.C.E.A.K.Y.P.W.C.R.Y.K.L.F}$PEPTIDE1,PEPTIDE1,2:R3-17:R3|PEPTIDE1,PEPTIDE1,9:R3-22:R3|PEPTIDE1,PEPTIDE1,16:R3-29:R3$$$V2.0), at hNaV1.7 [1], the IC50 was greater than 10000 nM.
